Laboratory results as given in PubChem BioAssay AID686923 (Vanderbilt Specialized Chemistry Center, 2013).
The source made the active and inactive calls. The rule behind the calls is not given here.

Assays:
[1] = target: Vascular endothelial growth factor receptor 2 (Homo sapiens) (UniProt P35968); assay: PubChem AID 686923; details: in vitro kinase counter-screen panel
[2] = target: In vitro counter assay against key known off-targets for selectedBMP Compounds; assay: PubChem AID 686923; details: in vitro kinase counter-screen panel

Vascular endothelial growth factor receptor 2 (Homo sapiens), sequence (P35968 whole entry, looked up): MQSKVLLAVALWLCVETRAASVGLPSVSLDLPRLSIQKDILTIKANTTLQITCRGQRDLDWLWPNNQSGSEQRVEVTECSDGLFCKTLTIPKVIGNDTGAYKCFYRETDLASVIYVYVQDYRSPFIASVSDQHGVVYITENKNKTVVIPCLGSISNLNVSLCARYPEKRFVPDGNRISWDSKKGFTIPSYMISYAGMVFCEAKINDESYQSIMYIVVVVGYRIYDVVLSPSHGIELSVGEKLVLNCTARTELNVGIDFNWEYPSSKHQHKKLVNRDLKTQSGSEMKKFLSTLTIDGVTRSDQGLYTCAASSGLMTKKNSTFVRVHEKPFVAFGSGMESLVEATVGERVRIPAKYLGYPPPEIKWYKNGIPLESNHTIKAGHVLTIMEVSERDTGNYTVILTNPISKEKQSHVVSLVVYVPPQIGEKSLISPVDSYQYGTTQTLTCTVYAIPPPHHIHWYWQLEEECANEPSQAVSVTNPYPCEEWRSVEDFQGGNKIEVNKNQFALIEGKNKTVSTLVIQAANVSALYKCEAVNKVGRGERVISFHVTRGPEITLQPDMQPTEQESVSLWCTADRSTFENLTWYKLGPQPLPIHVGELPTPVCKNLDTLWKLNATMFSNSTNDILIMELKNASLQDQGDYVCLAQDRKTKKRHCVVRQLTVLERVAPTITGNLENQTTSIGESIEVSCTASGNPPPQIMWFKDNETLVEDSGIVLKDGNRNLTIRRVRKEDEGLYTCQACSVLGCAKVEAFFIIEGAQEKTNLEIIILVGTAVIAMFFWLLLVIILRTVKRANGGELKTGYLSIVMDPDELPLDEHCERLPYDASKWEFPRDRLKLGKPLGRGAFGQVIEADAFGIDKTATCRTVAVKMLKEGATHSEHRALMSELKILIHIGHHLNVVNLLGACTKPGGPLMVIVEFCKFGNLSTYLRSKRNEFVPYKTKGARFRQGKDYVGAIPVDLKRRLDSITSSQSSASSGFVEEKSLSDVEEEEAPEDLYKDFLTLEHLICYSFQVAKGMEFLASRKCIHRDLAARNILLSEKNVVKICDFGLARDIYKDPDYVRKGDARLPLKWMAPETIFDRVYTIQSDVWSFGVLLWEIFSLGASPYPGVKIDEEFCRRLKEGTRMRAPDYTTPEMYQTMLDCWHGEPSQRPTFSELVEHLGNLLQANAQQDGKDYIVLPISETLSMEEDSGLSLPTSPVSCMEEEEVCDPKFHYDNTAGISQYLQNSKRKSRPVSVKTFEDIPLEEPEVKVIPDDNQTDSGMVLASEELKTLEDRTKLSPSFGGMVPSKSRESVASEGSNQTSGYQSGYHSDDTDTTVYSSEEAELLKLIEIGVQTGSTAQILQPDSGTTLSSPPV

IC50 [1] | IC50 [2] | SMILES
inactive | – | COc1ccc(-c2cnc3c(-c4cccc5ncccc45)cnn3c2)cc1
inactive | inactive | COc1ccc(-c2cnc3c(-c4cccc5cccnc45)cnn3c2)cc1
– | 253 µM | c1cc(-c2cnn3cc(-c4ccc(N5CCNCC5)cc4)cnc23)c2cccnc2c1
